Consider one molecule from publication PMC4761407 (ACS Chemical Biology, 2015).

The target of the experiment is CatSper channel complex (Homo sapiens, UniProt Q7RTX7+Q86XQ3+Q8NEC5+Q96P56). The experiment is described as follows: whole-cell patch clamp:[…] inhibits sirenin-induced ICatSper. It is filed as cell-based.
Sequence of CatSper channel complex (Q8NEC5 whole entry): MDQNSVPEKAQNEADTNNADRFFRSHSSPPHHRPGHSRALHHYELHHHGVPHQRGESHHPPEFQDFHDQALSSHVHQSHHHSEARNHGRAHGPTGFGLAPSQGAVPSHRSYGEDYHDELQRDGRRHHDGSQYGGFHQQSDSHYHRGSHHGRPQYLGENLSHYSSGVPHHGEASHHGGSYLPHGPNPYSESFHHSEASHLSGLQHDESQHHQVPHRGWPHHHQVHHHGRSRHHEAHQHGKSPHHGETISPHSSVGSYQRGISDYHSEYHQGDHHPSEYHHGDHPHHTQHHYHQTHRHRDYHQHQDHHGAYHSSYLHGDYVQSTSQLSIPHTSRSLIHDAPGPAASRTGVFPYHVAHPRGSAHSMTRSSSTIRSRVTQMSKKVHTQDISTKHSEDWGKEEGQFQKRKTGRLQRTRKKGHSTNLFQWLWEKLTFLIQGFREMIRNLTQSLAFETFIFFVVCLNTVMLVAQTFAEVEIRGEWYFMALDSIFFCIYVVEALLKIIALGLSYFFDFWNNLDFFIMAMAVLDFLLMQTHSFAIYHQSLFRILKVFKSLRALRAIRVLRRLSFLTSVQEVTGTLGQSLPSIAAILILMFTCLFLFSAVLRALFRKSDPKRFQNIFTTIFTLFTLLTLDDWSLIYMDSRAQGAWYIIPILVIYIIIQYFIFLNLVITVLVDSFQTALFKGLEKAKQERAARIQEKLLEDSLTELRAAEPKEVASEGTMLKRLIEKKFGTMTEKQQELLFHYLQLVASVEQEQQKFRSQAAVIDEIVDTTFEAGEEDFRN
Sequence of CatSper channel complex (Q96P56 whole entry): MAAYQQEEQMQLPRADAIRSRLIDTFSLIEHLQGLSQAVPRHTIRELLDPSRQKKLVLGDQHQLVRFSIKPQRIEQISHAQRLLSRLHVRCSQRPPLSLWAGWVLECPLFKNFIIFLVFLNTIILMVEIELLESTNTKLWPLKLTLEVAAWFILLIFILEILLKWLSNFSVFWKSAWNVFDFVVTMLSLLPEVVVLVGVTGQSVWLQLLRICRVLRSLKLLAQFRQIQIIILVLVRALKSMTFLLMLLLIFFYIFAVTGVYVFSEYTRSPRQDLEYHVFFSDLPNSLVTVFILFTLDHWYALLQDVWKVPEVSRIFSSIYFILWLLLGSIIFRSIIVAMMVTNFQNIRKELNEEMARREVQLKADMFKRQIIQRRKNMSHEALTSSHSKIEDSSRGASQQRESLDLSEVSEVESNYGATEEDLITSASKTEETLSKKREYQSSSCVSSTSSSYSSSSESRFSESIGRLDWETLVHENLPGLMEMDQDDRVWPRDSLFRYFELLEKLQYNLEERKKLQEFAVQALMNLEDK
Sequence of CatSper channel complex (Q7RTX7 whole entry): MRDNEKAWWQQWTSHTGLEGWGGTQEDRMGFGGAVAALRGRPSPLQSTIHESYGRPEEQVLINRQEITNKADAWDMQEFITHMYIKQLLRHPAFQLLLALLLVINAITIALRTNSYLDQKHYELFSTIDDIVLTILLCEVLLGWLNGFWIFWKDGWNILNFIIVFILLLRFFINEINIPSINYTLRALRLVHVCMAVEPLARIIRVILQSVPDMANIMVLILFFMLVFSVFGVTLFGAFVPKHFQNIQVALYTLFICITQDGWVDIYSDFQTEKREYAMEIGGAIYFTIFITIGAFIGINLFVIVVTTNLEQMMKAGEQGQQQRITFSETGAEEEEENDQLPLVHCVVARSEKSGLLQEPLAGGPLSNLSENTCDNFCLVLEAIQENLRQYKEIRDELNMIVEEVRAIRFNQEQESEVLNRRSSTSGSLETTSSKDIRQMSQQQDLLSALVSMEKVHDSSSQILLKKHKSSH
Sequence of CatSper channel complex (Q86XQ3 whole entry): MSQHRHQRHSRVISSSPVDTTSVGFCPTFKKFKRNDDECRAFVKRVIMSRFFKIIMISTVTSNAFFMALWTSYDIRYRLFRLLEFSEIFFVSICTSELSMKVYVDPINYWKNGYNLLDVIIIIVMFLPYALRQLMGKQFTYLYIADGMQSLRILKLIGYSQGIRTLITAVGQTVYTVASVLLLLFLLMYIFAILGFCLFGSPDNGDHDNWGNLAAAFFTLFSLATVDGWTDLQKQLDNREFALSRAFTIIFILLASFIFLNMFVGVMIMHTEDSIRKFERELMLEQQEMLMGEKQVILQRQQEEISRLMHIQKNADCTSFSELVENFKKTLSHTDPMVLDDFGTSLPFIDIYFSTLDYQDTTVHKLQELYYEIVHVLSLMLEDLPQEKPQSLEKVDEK

For the molecule `COCC(=O)O[C@]1(CCN(C)CCCc2nc3ccccc3[nH]2)CCc2cc(F)ccc2[C@@H]1C(C)C` [mibefradil], the “whole-cell patch clamp: 30 μM inhibits sirenin-induced ICatSper; FLIPR: 55% redu” value amounted to 30 µM.
